How the values were obtained:
HCV NS5B = target: T1, HCV NS5B (Hepatitis C virus genotype 1b, UniProt Q9WMX2); experiment: Inhibition of viral RNA-dependent RNA polymerase (RdRp), in vitro biochemical assay; parameters: species or system HCV genotype 1b virus (BB7); conditions: HCV NS5B RdRp, BB7; reported as range class; read-out: HCV pol-BB7 IC50
T1 construct: fusion protein, of which the carboxyl terminal 21 amino acids were removed to enhance its solubility; His tag (GSHHHHHH); made in house; host or cells: E. coli
Outline: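 Purified recombinant NS5B from a genotype 1b consensus (BB7), His-tagged, E. coli-expressed, with the C-terminal 21 residues deleted. Inhibition of RdRp activity in vitro was measured, and IC50 is the concentration giving 50% inhibition.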

[1] = tested on: HCV replicon (BB7 sequence) in Huh-7-Clone A cells; experiment: HCV replicon assay: ELISA of NS5A protein in replicon-containing cells (Inhibition of Viral RNA Replication); assay type: cell-based; conditions: Hepatitis C virus; HCV replicon, range of EC50; read-out: Replicon
Outline: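 Huh-7-Clone A cells carrying subgenomic BB7 HCV replicon (G418-selectable) incubated 72 h with compound. NS5A protein quantified by cell ELISA: glutaraldehyde fixation, anti-NS5A monoclonal plus HRP secondary, TMB read at OD 650 nm. EC50 derived from 8-point serial dilution dose curve.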

SMILES	IC50 (HCV NS5B) [nM]	EC50 [1] [nM]
CNC(=O)c1c(-c2ccc(F)cc2)oc2cc(N3CCOCC3)c(OCc3noc(-c4c(C)noc4C)n3)cc12 [Example 203, 5-[5-(3,5-Dimethyl-isoxazol-4-yl)-[1,2,4]oxadiazol-3-ylmethoxy]-2-(4-fluoro-phenyl)-6-morpholin-4-yl-benzofuran-3-carboxylic acid methylamide]	500 to 5000	< 10000
CNC(=O)c1c(-c2ccc(F)cc2)oc2cc(N3CCOCC3)c(OCc3noc(C(C)(C)C)n3)cc12 [Example 204, 5-(5-tert-Butyl-[1,2,4]oxadiazol-3-ylmethoxy)-2-(4-fluoro-phenyl)-6-morpholin-4-yl-benzofuran-3-carboxylic acid methylamide]	≤ 500	< 1000
CNC(=O)c1c(-c2ccc(F)cc2)oc2cc(-c3ncon3)c(OC(C)C)cc12 [Example 205, 2-(4-Fluoro-phenyl)-5-isopropoxy-6-[1,2,4]oxadiazol-3-yl-benzofuran-3-carboxylic acid methylamide]	≤ 500	< 1000
CNC(=O)c1c(-c2ccc(F)cc2)oc2cc(N3CCOCC3)c(OCc3nsc(Cl)n3)cc12 [Example 206, 5-(5-Chloro-[1,2,4]thiadiazol-3-ylmethoxy)-2-(4-fluoro-phenyl)-6-morpholin-4-yl-benzofuran-3-carboxylic acid methylamide]	500 to 5000	< 1000
CNC(=O)c1c(-c2ccc(F)cc2)oc2cc(N3CCOCC3)c(OCc3nnc(-c4ccc(C)cc4)o3)cc12 [Example 207, 2-(4-Fluoro-phenyl)-6-morpholin-4-yl-5-(5-p-tolyl-[1,3,4]oxadiazol-2-ylmethoxy)-benzofuran-3-carboxylic acid methylamide]	5000 to 30000	< 10000
CNC(=O)c1c(-c2ccc(F)cc2)oc2cc(O)c(OC)cc12 [Example 208, 2-(4-Fluoro-phenyl)-6-hydroxy-5-methoxy-benzofuran-3-carboxylic acid methylamide]	500 to 5000	< 30000
CNC(=O)c1c(-c2ccc(F)cc2)oc2cc(N3CCOCC3)c(OCc3nnnn3C)cc12 [Example 209, 2-(4-Fluoro-phenyl)-5-(1-methyl-1H-tetrazol-5-ylmethoxy)-6-morpholin-4-yl-benzofuran-3-carboxylic acid methylamide]	500 to 5000	< 10000
CNC(=O)c1c(-c2ccc(F)cc2)oc2cc(N3CCOCC3)c(OCc3cccc(OC)c3)cc12 [Example 210, 2-(4-Fluoro-phenyl)-5-(3-methoxy-benzyloxy)-6-morpholin-4-yl-benzofuran-3-carboxylic acid methylamide]	≤ 500	< 1000
CNC(=O)c1c(-c2ccc(F)cc2)oc2cc(OCc3nnnn3C)c(OC)cc12 [Example 211, 2-(4-Fluoro-phenyl)-5-methoxy-6-(1-methyl-1H-tetrazol-5-ylmethoxy)-benzofuran-3-carboxylic acid methylamide]	≤ 500	< 1000
CNC(=O)c1c(-c2ccc(F)cc2)oc2cc(N3CCOCC3)c(OC(C)c3ccc(F)cc3)cc12 (stereo not drawn) [Example 212, 2-(4-Fluoro-phenyl)-5-[1-(4-fluoro-phenyl)-ethoxy]-6-morpholin-4-yl-benzofuran-3-carboxylic acid methylamide]	≤ 500	< 1000
CNC(=O)c1c(-c2ccc(F)cc2)oc2cc(N3CCOCC3)c(OCc3ccc(C#N)cc3)cc12 [Example 213, 5-(4-Cyano-benzyloxy)-2-(4-fluoro-phenyl)-6-morpholin-4-yl-benzofuran-3-carboxylic acid methylamide]	500 to 5000	< 10000
CNC(=O)c1c(-c2ccc(F)cc2)oc2cc(N3CCOCC3)c(OCc3noc(-c4ccc(OC)cc4)n3)cc12 [Example 214, 2-(4-Fluoro-phenyl)-5-[5-(4-methoxy-phenyl)-[1,2,4]oxadiazol-3-ylmethoxy]-6-morpholin-4-yl-benzofuran-3-carboxylic acid methylamide]	500 to 5000	< 1000
CNC(=O)c1c(-c2ccc(F)cc2)oc2cc(N3CCOCC3)c(OCC(C)=O)cc12 [Example 215, 2-(4-Fluoro-phenyl)-6-morpholin-4-yl-5-(2-oxo-propoxy)-benzofuran-3-carboxylic acid methylamide]	500 to 5000	< 10000
CNC(=O)c1c(-c2ccc(F)cc2)oc2cc(N3CCOCC3)c(OCc3nccn3Cc3ccccc3)cc12 [Example 216, 5-(1-Benzyl-1H-imidazol-2-ylmethoxy)-2-(4-fluoro-phenyl)-6-morpholin-4-yl-benzofuran-3-carboxylic acid methylamide]	≤ 500	< 1000
CNC(=O)c1c(-c2ccc(F)cc2)oc2cc(N3CCOCC3)c(OCc3c(C)noc3C)cc12 [Example 217, 5-(3,5-Dimethyl-isoxazol-4-ylmethoxy)-2-(4-fluoro-phenyl)-6-morpholin-4-yl-benzofuran-3-carboxylic acid methylamide]	500 to 5000	< 10000
CNC(=O)c1c(-c2ccc(F)cc2)oc2cc(N3CCOCC3)c(OCc3cc(C)on3)cc12 [Example 218, 2-(4-Fluoro-phenyl)-5-(5-methyl-isoxazol-3-ylmethoxy)-6-morpholin-4-yl-benzofuran-3-carboxylic acid methylamide]	≤ 500	< 1000
CNC(=O)c1c(-c2ccc(F)cc2)oc2cc(-c3nccs3)c(OC(C)C)cc12 [Example 219, 2-(4-Fluoro-phenyl)-5-isopropoxy-6-thiazol-2-yl-benzofuran-3-carboxylic acid methylamide]	≤ 500	< 10000
CNC(=O)c1c(-c2ccc(F)cc2)oc2cc(-c3ccc[nH]3)c(OC(C)C)cc12 [Example 220, 2-(4-Fluoro-phenyl)-5-isopropoxy-6-(1H-pyrrol-2-yl)-benzofuran-3-carboxylic acid methylamide]	≤ 500	< 10000
CNC(=O)c1c(-c2ccc(F)cc2)oc2cc(N(C(C)C)S(C)(=O)=O)c(OC)cc12 [Example 221, 2-(4-Fluoro-phenyl)-6-(isopropyl-methanesulfonyl-amino)-5-methoxy-benzofuran-3-carboxylic acid methylamide]	≤ 500	< 1000
CNC(=O)c1c(-c2ccc(F)cc2)oc2cc(C(C)O)c(OC(C)C)cc12 (stereo not drawn) [Example 222, 2-(4-Fluoro-phenyl)-6-(1-hydroxy-ethyl)-5-isopropoxy-benzofuran-3-carboxylic acid methylamide]	≤ 500	< 1000
CNC(=O)c1c(-c2ccc(F)cc2)oc2cc(CN3CCOCC3)c(OC(C)C)cc12 [Example 223, 2-(4-Fluoro-phenyl)-5-isopropoxy-6-morpholin-4-ylmethyl-benzofuran-3-carboxylic acid methylamide]	5000 to 30000	< 10000
CNC(=O)c1c(-c2ccc(F)cc2)oc2cc(CO)c(OC(C)C)cc12 [Example 224, 2-(4-Fluoro-phenyl)-6-hydroxymethyl-5-isopropoxy-benzofuran-3-carboxylic acid methylamide]	≤ 500	< 10000
CNC(=O)c1c(-c2ccc(F)cc2)oc2cc(N3CCOCC3)c(OCc3cnc[nH]3)cc12 [Example 225, 2-(4-Fluoro-phenyl)-5-(3H-imidazol-4-ylmethoxy)-6-morpholin-4-yl-benzofuran-3-carboxylic acid methylamide]	≤ 500	< 10000
CNC(=O)c1c(-c2ccc(F)cc2)oc2cc(N3CCOCC3)c(OCCOC)cc12 [Example 226, 2-(4-Fluoro-phenyl)-5-(2-methoxy-ethoxy)-6-morpholin-4-yl-benzofuran-3-carboxylic acid methylamide]	≤ 500	< 1000
CNC(=O)c1c(-c2ccc(F)cc2)oc2cc(-c3cncs3)c(OC(C)C)cc12 [Example 227, 2-(4-Fluoro-phenyl)-5-isopropoxy-6-thiazol-5-yl-benzofuran-3-carboxylic acid methylamide]	≤ 500	< 1000
CNC(=O)c1c(-c2ccc(F)cc2)oc2cc(N3CCOCC3)c(OCc3nn(C)cc3Cl)cc12 [Example 228, 5-(4-Chloro-1-methyl-1H-pyrazol-3-ylmethoxy)-2-(4-fluoro-phenyl)-6-morpholin-4-yl-benzofuran-3-carboxylic acid methylamide]	≤ 500	< 1000
CNC(=O)c1c(-c2ccc(F)cc2)oc2cc(N3CCOCC3)c(OC(C)C#N)cc12 (stereo not drawn) [Example 229, 5-(Cyano-methyl-methoxy)-2-(4-fluoro-phenyl)-6-morpholin-4-yl-benzofuran-3-carboxylic acid methylamide]	≤ 500	< 10000
CNC(=O)c1c(-c2ccc(F)cc2)oc2cc(-c3ccn[nH]3)c(OC(C)C)cc12 [Example 230, 2-(4-Fluoro-phenyl)-5-isopropoxy-6-(2H-pyrazol-3-yl)-benzofuran-3-carboxylic acid methylamide]	≤ 500	< 10000
CNC(=O)c1c(-c2ccc(F)cc2)oc2cc(-c3ccnn3C)c(OC(C)C)cc12 [Example 231, 2-(4-Fluoro-phenyl)-5-isopropoxy-6-(2-methyl-2H-pyrazol-3-yl)-benzofuran-3-carboxylic acid methylamide]	≤ 500	< 1000
CNC(=O)c1c(-c2ccc(F)cc2)oc2cc(-c3ccn(C)n3)c(OC(C)C)cc12 [Example 232, 2-(4-Fluoro-phenyl)-5-isopropoxy-6-(1-methyl-1H-pyrazol-3-yl)-benzofuran-3-carboxylic acid methylamide]	500 to 5000	< 10000
